Results taken from article PMC3700907 (PLoS ONE, 2013).
“And” between values parts separate entries of the source, which are not always exact repeats. Equal values may be shown once. Read-outs that look alike come from different tables or passages of the source.

Legend:
mPrP(23–230) monomer = mPrP(23–230) monomer (Mus musculus, UniProt P04925); conditions: pH 6
[1] = assay type: physicochemical
[2] = assay type: physicochemical; conditions: pH 3.7

Sequence of mPrP(23–230) monomer (P04925 23-230 limits assumed): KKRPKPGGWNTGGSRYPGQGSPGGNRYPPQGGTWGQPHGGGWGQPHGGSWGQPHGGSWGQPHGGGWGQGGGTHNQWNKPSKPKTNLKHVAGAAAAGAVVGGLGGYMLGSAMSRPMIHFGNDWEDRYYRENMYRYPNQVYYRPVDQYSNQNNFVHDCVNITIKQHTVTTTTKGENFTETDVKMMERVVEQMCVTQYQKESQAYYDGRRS

Substance | average lag time of amyloid formation of mPrP(23–230) relative to unseeded reaction (mPrP(23–230) monomer) | cross-seeding effect on mPrP(23–230) monomer (mPrP(23–230) monomer) | monomer concentration remained in solution after fibrillization ([1]; pH 7.4) | average lag time for amyloidogenesis [2] | monomer concentration remained in solution after fibrillization ([1]; pH 3.7)
Ac-NLKHVAGAAAAGAVVGGLGG-NH2 [mPrP(107–126)] | slightly prolonged | no seeding effect | 12.4 µM and 11.1 µM and 6.6 µM | – | –
Ac-YMLGSAMSRPMIHFGND-NH2 [mPrP(127–143)] | – | induced immediately | – | hardly detectable | 32.6 µM and 35.6 µM and 27.2 µM
